Laboratory results: ChEMBL document CHEMBL1649555, “Characterization of pABVA01, a plasmid encoding the OXA-24 carbapenemase from Italian isolates of Acinetobacter baumannii” (2009)
Converted amounts (≈) assume the structure as drawn.

Assays:
Type in all cases: functional
[1] = tested on: Acinetobacter baumannii; experiment: Antibacterial activity against blaOXA-24-positive Acinetobacter baumannii isolate N50 by CLSI broth microdilution method
[2] = tested on: Acinetobacter baumannii; experiment: Antibacterial activity against blaOXA-24-positive Acinetobacter baumannii isolate RUH134 harboring plasmid ABVA01 by CLSI broth microdilution method
[3] = tested on: Acinetobacter baumannii; experiment: Antibacterial activity against blaOXA-24-positive Acinetobacter baumannii isolate VA-566/00 by CLSI broth microdilution method
[4] = tested on: Acinetobacter baumannii; experiment: Antibacterial activity against blaOXA-24-positive Acinetobacter baumannii isolate RUH134 by CLSI broth microdilution method
[5] = tested on: Acinetobacter baumannii; experiment: Antibacterial activity against blaOXA-24-positive Acinetobacter baumannii isolate RUH134 by CLSI broth microdilution method in presence of Sulbactam
[6] = tested on: Acinetobacter baumannii; experiment: Antibacterial activity against blaOXA-24-positive Acinetobacter baumannii isolate RUH134 harboring plasmid ABVA01 by CLSI broth microdilution method in presence of Sulbactam
[7] = tested on: Acinetobacter baumannii; experiment: Antibacterial activity against blaOXA-24-positive Acinetobacter baumannii isolate N50 by CLSI broth microdilution method in presence of Sulbactam
[8] = tested on: Acinetobacter baumannii; experiment: Antibacterial activity against blaOXA-24-positive Acinetobacter baumannii isolate VA-566/00 by CLSI broth microdilution method in presence of Sulbactam

## CN(C)c1cc(NC(=O)CNC(C)(C)C)c(O)c2c1C[C@H]1C[C@H]3[C@H](N(C)C)C(O)=C(C(N)=O)C(=O)[C@@]3(O)C(O)=C1C2=O [TIGECYCLINE]
[1]
  MIC: 1 µg/mL (≈ 1.71 µM)
[2]
  MIC: 1 µg/mL (≈ 1.71 µM)
[3]
  MIC: 4 µg/mL (≈ 6.83 µM)
[4]
  MIC: 1 µg/mL (≈ 1.71 µM)

## C[C@@H](O)[C@H]1C(=O)N2C(C(=O)O)=C(SCCNC=N)C[C@H]12 [IMIPENEM ANHYDROUS]
[1]
  MIC: 128 µg/mL (≈ 428 µM)
[2]
  MIC: 64 µg/mL (≈ 214 µM)
[3]
  MIC: 256 µg/mL (≈ 855 µM)
[4]
  MIC: 0.25 µg/mL (≈ 0.835 µM)

## COLISTIN
[1]
  MIC: > 8 µg/mL
[2]
  MIC: 0.5 µg/mL
[3]
  MIC: 0.5 µg/mL
[4]
  MIC: 0.5 µg/mL

## CC1(C)S[C@@H]2[C@H](NC(=O)[C@H](N)c3ccccc3)C(=O)N2[C@H]1C(=O)O [AMPICILLIN]
[5]
  MIC: 64 µg/mL
[6]
  MIC: 64 µg/mL
[7]
  MIC: 32 µg/mL
[8]
  MIC: 64 µg/mL

## CC(C)(O/N=C(\C(=O)N[C@@H]1C(=O)N2C(C(=O)[O-])=C(C[n+]3ccccc3)CS[C@H]12)c1csc(N)n1)C(=O)O [CEFTAZIDIME]
[1]
  MIC: > 256 µg/mL
[2]
  MIC: 16 µg/mL (≈ 29.3 µM)
[3]
  MIC: > 256 µg/mL
[4]
  MIC: 16 µg/mL (≈ 29.3 µM)

## C[C@@H](O)[C@H]1C(=O)N2C(C(=O)O)=C(S[C@@H]3CN[C@H](C(=O)N(C)C)C3)[C@H](C)[C@H]12 [MEROPENEM]
[1]
  MIC: 128 µg/mL (≈ 334 µM)
[2]
  MIC: 128 µg/mL (≈ 334 µM)
[3]
  MIC: 256 µg/mL (≈ 668 µM)
[4]
  MIC: 1 µg/mL (≈ 2.61 µM)

## GENTAMICIN
[1]
  MIC: > 256 µg/mL
[2]
  MIC: > 256 µg/mL
[3]
  MIC: > 256 µg/mL
[4]
  MIC: > 256 µg/mL

## NCC[C@H](O)C(=O)N[C@@H]1C[C@H](N)[C@@H](O[C@H]2O[C@H](CN)[C@@H](O)[C@H](O)[C@H]2O)[C@H](O)[C@H]1O[C@H]1O[C@H](CO)[C@@H](O)[C@H](N)[C@H]1O [AMIKACIN]
[1]
  MIC: 256 µg/mL (≈ 437 µM)
[2]
  MIC: 4 µg/mL (≈ 6.83 µM)
[3]
  MIC: 64 µg/mL (≈ 109 µM)
[4]
  MIC: 4 µg/mL (≈ 6.83 µM)
